Experimental data: ChEMBL document CHEMBL1201862, “PubChem BioAssay data set” (2004)
“And” between values parts separate entries of the source, which are not always exact repeats. Identical values can stand only once.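 Grown in 96-well plates, cells were treated for 48 hours with each compound at five concentrations. Insufficient inhibition: endpoint recorded as highest concentration tested. GI50 marks 50% less growth.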 The source made the active and inactive calls. Cut-off read from the data, not from the text of the source: active = GI50 up to about 1.1 µM and inactive = higher.

Tests used:
Experiment in all cases: NCI-60 cell line screen, 48 h
[1] = test system: NCI-H226
[2] = test system: OVCAR-8
[3] = test system: U-251
[4] = test system: OVCAR-5
[5] = test system: SK-MEL-28
[6] = test system: MDA-MB-435
[7] = test system: HL-60
[8] = test system: MDA-N
[9] = test system: UACC-257
[10] = test system: HOP-92
[11] = test system: HOP-62
[12] = test system: SF-539
[13] = test system: PC-3
[14] = test system: SNB-19
[15] = test system: UO-31
[16] = test system: A498
[17] = test system: MOLT-4
[18] = test system: K562
[19] = test system: Hs-578T

Measured: GI50

COC(=O)Nc1cc(OCCCOC(C)=O)c2[nH]c(C(=O)OC)cc2c1C[C@H](O)CO
inactive: [1] > 100 µM | [2] > 100 µM | [3] > 100 µM | [4] > 100 µM | [5] > 100 µM | [6] > 100 µM | [7] > 100 µM | [8] > 100 µM | [9] > 100 µM | [10] 11.1 µM | [11] > 100 µM | [12] > 100 µM | [13] > 100 µM | [14] > 100 µM | [15] > 100 µM | [16] > 100 µM | [17] > 100 µM

COC(=O)C1(C(=O)OC)CC2=C(S(=O)(=O)c3ccccc3)C[C@@H](C#N)[C@H]2C1
inactive: [1] > 100 µM | [2] > 100 µM | [3] > 100 µM | [4] > 100 µM | [5] > 100 µM | [6] > 100 µM | [7] > 100 µM | [8] > 100 µM | [9] > 100 µM | [10] 28.9 µM | [11] > 100 µM | [12] > 100 µM | [18] > 100 µM | [13] > 100 µM | [14] > 100 µM | [15] > 100 µM | [16] > 100 µM | [17] > 100 µM

CC(=O)Oc1ccc(-c2c(OC(C)=O)c(OC(C)=O)c(-c3ccc(OC(C)=O)c(OC(C)=O)c3)c(OC(C)=O)c2OC(C)=O)cc1
inactive: [1] 17.9 µM | [2] 14.6 µM | [3] 17.5 µM | [4] 12.5 µM | [5] 14.8 µM | [6] 16.9 µM | [7] 22.9 µM | [8] 16.9 µM | [9] 15.1 µM | [12] 18.2 µM | [18] 21.5 µM | [13] 15.9 µM | [14] 15.8 µM | [15] 15.5 µM | [16] 20.1 µM | [17] 20.2 µM

O=C1CC(c2ccc(O)cc2)C2(O1)C(=O)OC(C(O)CO)C2O (configuration not stated)
inactive: [1] > 100 µM | [19] > 100 µM | [2] > 100 µM | [3] > 100 µM | [4] > 100 µM | [5] > 100 µM | [6] > 100 µM | [7] > 100 µM | [9] > 100 µM | [11] > 100 µM | [12] > 100 µM | [18] > 100 µM | [13] > 100 µM | [14] > 100 µM | [15] > 100 µM | [16] > 100 µM | [17] > 100 µM

COc1ccc(/C=C2/N/C(=N\N=C/C(O)C(O)C(O)CO)NC2=O)cc1 (configuration not stated)
inactive: [1] 87.7 µM | [19] 78.2 µM | [2] > 100 µM | [3] > 100 µM and 84.7 µM | [4] > 100 µM | [6] > 100 µM and 74.1 µM | [7] > 100 µM | [8] 72.6 µM | [9] > 100 µM | [10] 48.3 µM and 42.6 µM | [12] 18 µM | [15] > 100 µM | [17] 88.1 µM

CCCCC(C)(C/C=C/[C@@H]1[C@@H](C(O)CCCCCC(=O)OC)C(=O)C[C@H]1O[Si](C)(C)C(C)(C)C)O[Si](C)(C)C (some centres not stated)
inactive: [1] > 100 µM | [2] > 100 µM | [3] 57.5 µM | [4] > 100 µM | [5] 77.4 µM | [6] 74.3 µM | [9] 62.1 µM | [10] > 100 µM | [11] > 100 µM | [12] > 100 µM | [18] 36.5 µM | [13] 34.9 µM | [14] > 100 µM | [15] 33.7 µM | [17] 19.7 µM

O=C1/C(=C/c2cccc3ccccc23)Cc2ccccc21
inactive: [1] 10.5 µM | [19] 22 µM | [2] 53.8 µM | [3] 19.6 µM | [4] 29.2 µM | [5] 32.8 µM | [7] 28.4 µM | [12] 27.2 µM | [18] 62.4 µM | [13] 16.9 µM | [14] 17.9 µM | [15] 22.1 µM | [16] 37 µM | [17] 40.5 µM

CCSCCCSCCSCC
inactive: [2] > 100 µM | [3] > 100 µM | [4] > 100 µM | [5] > 100 µM | [6] > 100 µM | [7] 26.4 µM | [8] > 100 µM | [9] > 100 µM | [11] > 100 µM | [12] > 100 µM | [18] > 100 µM | [13] > 100 µM | [14] > 100 µM | [15] > 100 µM | [17] 17.2 µM

Nc1nc2c(c(=O)[nH]1)NC(CO)CN2 (configuration not stated)
inactive: [1] > 100 µM | [2] 71 µM | [3] > 100 µM | [5] > 100 µM | [7] > 100 µM | [9] 24.3 µM | [11] > 100 µM | [12] > 100 µM | [18] 51.3 µM | [14] > 100 µM | [15] > 100 µM | [17] 37.1 µM
